According to ChEMBL document CHEMBL1121984 (J Med Chem, 1982):
Calls of active or inactive are those of the source. The calls are words filed in the database; no cut-off is given here.

Tests used:
Felis catus [1] = experiment: Inhibition of the positive chronotropic effect of stimulation of the cardioaccelerator nerve in the anesthetized cat.; format: functional, organism-based
Dopamine receptor [2] = target: T1, Dopamine receptor (Bos taurus, UniProt Q95136+P20288); experiment: Inhibitory binding activity against dopamine receptor using [3H]ADTN as the radioligand in striatal tissue of calf brain.; format: tissue-based, Striatum
Dopamine receptor [3] = target: T1, Dopamine receptor; experiment: Inhibitory binding activity against dopamine receptor using [3H]spiperone as the radioligand in striatal tissue of calf brain.; format: tissue-based, Striatum
Felis catus [4] = species on record: Felis catus; experiment: Inhibition of positive chronotropic effect of the cardioaccelerator was determined; format: functional; conditions: read-out: ID50 (the source's name)
Canis familiaris = experiment: Effective dose for emetic activity after administration to dog; format: functional; conditions: Canis lupus familiaris
Felis catus [5] = species on record: Felis catus; experiment: The compound was evaluated for its ability to inhibit the positive chronotropic effect of the cardioaccelerator; format: functional; conditions: read-out: ID50 (the source's name)
[6] = The compound was tested for its emetic activity in dog, activity expressed as potency ratio.; format: functional
Dopamine receptor [7] = target: T1, Dopamine receptor; experiment: Inhibitory binding activity against dopamine receptor using [3H]ADTN as the radioligand in striatal tissue of calf brain; format: tissue-based, Striatum
Dopamine receptor [8] = target: T1, Dopamine receptor; experiment: Inhibitory binding activity against dopamine receptor using [3H]spiperone as the radioligand in striatal tissue of calf brain; format: tissue-based, Striatum
Felis catus [9] = experiment: The compounds were evaluated for their ability to inhibit the positive chronotropic effect of stimulation of the cardioaccelerator nerve in the anesthetized cat; format: functional; conditions: read-out: ID50 (the source's name)

Row | Structure (SMILES) | ID50 (Felis catus [1]) | IC50 (Dopamine receptor [3]) | also measured
1 | COc1ccc2c(c1OC)CC(N)C2 (configuration not stated) | inactive |  | 
2 | CC(C)N(C)C1Cc2cc(O)c(O)cc2C1 | Increased heart rate at 3umol/kg |  | 
3 | COc1cc2c(cc1OC)CC(N)C2 | inactive |  | 
4 | CNC1Cc2ccc(O)c(O)c2C1 (configuration not stated) | Increased heart rate at 3umol/kg |  | 
5 | Br.CN(C)C1Cc2cc(O)c(O)cc2C1 | Increased heart rate | 104 µM | IC50 (Dopamine receptor [2]): 6 µM
6 | CN1CCc2cccc3c2[C@H]1Cc1ccc(O)c(O)c1-3 [APOMORPHINE] |  |  | ED50 (Felis catus [4]): 0.022 µmol/kg; ED50 (Canis familiaris): 0.07 mg/kg
7 | Br.CCN(CC)C1Cc2ccc(O)c(O)c2C1 (configuration not stated) |  | 220 µM | ED50 (Felis catus [5]): 0.05 µmol/kg; IC50 (Dopamine receptor [2]): 39 µM; Potency ratio [6]: 0.26
8 | COc1cc2c(cc1OC)CC(N(C)C(C)C)C2 | inactive |  | 
9 | CNC1Cc2cc(O)c(O)cc2C1 | Increased heart rate at 3umol/kg |  | 
10 | CCCNC1Cc2ccc(OC)c(OC)c2C1.Cl (configuration not stated) | inactive | 105 µM | IC50 (Dopamine receptor [2]): 51000 µM
11 | NC1Cc2cc(O)c(O)cc2C1 | Increased heart rate at 3umol/kg |  | 
12 | CCNC1Cc2ccc(O)c(O)c2C1 (configuration not stated) |  |  | ED50 (Felis catus [4]): > 1 µmol/kg
13 | CCNC1Cc2ccc(OC)c(OC)c2C1 (configuration not stated) | inactive |  | 
14 | Br.CCCN(CCC)C1Cc2ccc(O)c(O)c2C1 (configuration not stated) |  | 53.86 µM | ED50 (Felis catus [5]): 0.02 µmol/kg; IC50 (Dopamine receptor [2]): 10 µM; Potency ratio [6]: 1.24
15 | CNC1Cc2cc(OC)c(OC)cc2C1 | inactive |  | 
16 | Br.CCN(CC)C1Cc2ccc(OC)c(OC)c2C1 (configuration not stated) | inactive | 29 µM | IC50 (Dopamine receptor [2]): 1660 µM

Row | Structure (SMILES) | ID50 (Felis catus [1]) | IC50 (Dopamine receptor [3]) | also measured
17 | COc1cc2c(cc1OC)CC(NC(C)C)C2 | inactive |  | 
18 | CC(C)NC1Cc2cc(O)c(O)cc2C1 | Increased heart rate at 3umol/kg |  | 
19 | Br.CN(C)C1Cc2ccc(O)c(O)c2C1 (configuration not stated) | Increased heart rate |  | IC50 (Dopamine receptor [7]): 10 µM; IC50 (Dopamine receptor [8]): 91 µM
20 | CC(C)NC1Cc2ccc(O)c(O)c2C1 (configuration not stated) | inactive |  | 
21 | CCN(CC)C1Cc2cc(OC)c(OC)cc2C1 | inactive |  | 
22 | NCCc1ccc(O)c(O)c1 [DOPAMINE] |  |  | ED50 (Felis catus [4]): 0.105 µmol/kg
23 | Br.CCN(CC)C1Cc2cc(O)c(O)cc2C1 | Increased heart rate | 246 µM | 
24 | CNC1Cc2ccc(OC)c(OC)c2C1 (configuration not stated) | inactive |  | 
25 | CCCN(CCC)C1Cc2cc(OC)c(OC)cc2C1.Cl | inactive | 10.4 µM | 
26 | CCCNC1Cc2ccc(O)c(O)c2C1 (configuration not stated) | inactive |  | 
27 | CN1C[C@H](CC#N)C[C@@H]2c3cccc4[nH]c(Cl)c(c34)C[C@H]21 [LERGOTRILE] |  | 23.7 µM | ED50 (Felis catus [9]): 0.27 µmol/kg; IC50 (Dopamine receptor [2]): 4.5 µM
28 | NC1Cc2ccc(O)c(O)c2C1 (configuration not stated) | Increased heart rate at 3umol/kg |  | 
29 | COc1cc2c(cc1OC)CC(N(C)C)C2.Cl | inactive | 50 µM | IC50 (Dopamine receptor [2]): 400 µM
30 | COc1ccc2c(c1OC)CC(NC(C)C)C2 (configuration not stated) | inactive |  | 
31 | COc1ccc2c(c1OC)CC(N(C)C)C2 (configuration not stated) | inactive | 100 µM | IC50 (Dopamine receptor [2]): 2300 µM
32 | Br.CCCN(CCC)C1Cc2cc(O)c(O)cc2C1 |  | 17.6 µM | ED50 (Felis catus [4]): > 3 µmol/kg; IC50 (Dopamine receptor [2]): 412 µM
